From patent US5019394A, “Liposome composition and its production” (Takeda Chemical Industries, Ltd., priority 1987, dated 1991)
Structures can show the parent of a compound that is named as a salt.

Assay: observed phase transition temperature of phospholipids
Format: physicochemical
Details: phospholipid

observed phase transition temperature | Compound
47.4 °C | CCCCCCCCCCCCCCCCCC(=O)OC(COC(=O)CCCCCCCCCCCCCCC)COP(=O)([O-])OCC[N+](C)(C)C (centres unmarked) [PSPC, palmitoylstearoylphosphatidyl choline]
38 °C | CCCCCCCCCCCCCC(=O)OCC(COP(=O)(O)OCC(N)C(=O)O)OC(=O)CCCCCCCCCCCCC (centres unmarked) [DMPS, dimyristoylphosphatidyl serine]
above 60 °C | CCCCCCCCCCCCCCCCCC(=O)OCC(COP(=O)(O)OCCN)OC(=O)CCCCCCCCCCCCCCCCC (centres unmarked) [DSPE, distearoylphosphatidyl ethanolamine]
44.0 °C | CCCCCCCCCCCCCCCCCC(=O)OCC(COP(=O)([O-])OCC[N+](C)(C)C)OC(=O)CCCCCCCCCCCCCCC (centres unmarked) [SPPC, stearoylpalmitoylphosphatidyl choline]
57 °C | distearoyl sphingomyelin [DSSM]
41 °C | CCCCCCCCCCCCCCCC(=O)OCC(COP(=O)(O)OCC(O)CO)OC(=O)CCCCCCCCCCCCCCC (centres unmarked) [DPPG, dipalmitoylphosphatidyl glycerine]
27.2 °C | CCCCCCCCCCCCCCCC(=O)OCC(COP(=O)([O-])OCC[N+](C)(C)C)OC(=O)CCCCCCCCCCCCC (centres unmarked) [PMPC, palmitoylmyristoylphosphatidyl choline]
23 °C | CCCCCCCCCCCCCC(=O)OCC(COP(=O)(O)OCC(O)CO)OC(=O)CCCCCCCCCCCCC (centres unmarked) [DMPG, dimyristoylphosphatidyl glycrine]
55 °C | CCCCCCCCCCCCCCCCCC(=O)OCC(COP(=O)(O)OCC(O)CO)OC(=O)CCCCCCCCCCCCCCCCC (centres unmarked) [DSPG, distearoylphosphatidyl glycerine]
35.3 °C | CCCCCCCCCCCCCCCC(=O)OC(COC(=O)CCCCCCCCCCCCC)COP(=O)([O-])OCC[N+](C)(C)C (centres unmarked) [MPPC, myristoylpalmitoylphosphatidyl choline]
41 °C | dipalmitoyl sphingomyelin [DPSM]

Compound | observed phase transition temperature
CCCCCCCCCCCCCCCC(=O)OCC(COP(=O)(O)OCC(N)C(=O)O)OC(=O)CCCCCCCCCCCCCCC (centres unmarked) [DPPS, dipalmitoylphosphatidyl serine] | 51 °C
CCCCCCCCCCCCCCCCCC(=O)OCC(COP(=O)(O)OCC(N)C(=O)O)OC(=O)CCCCCCCCCCCCCCCCC (centres unmarked) [DSPS, distearoylphosphatidyl serine] | ≥ 50 °C
CCCCCCCCCCCCCCCCCC(=O)OCC(COP(=O)([O-])OCC[N+](C)(C)C)OC(=O)CCCCCCCCCCCCCCCCC (centres unmarked) [DSPC, distearoylphosphatidyl choline] | 54.9 °C
CCCCCCCCCCCCCCCC(=O)OC[C@H](COP(=O)([O-])OCC[N+](C)(C)C)OC(=O)CCCCCCCCCCCCCCC [DPPC, dipalmitoylphosphatidyl choline] | 41.4 °C
CCCCCCCCCCCCCC(=O)OC[C@H](COP(=O)([O-])OCC[N+](C)(C)C)OC(=O)CCCCCCCCCCCCC [DMPC, dimyristoylphosphatidyl choline] | 23.9 °C
CCCCCCCCCCCCCCCC(=O)OCC(COP(=O)(O)OCCN)OC(=O)CCCCCCCCCCCCCCC (centres unmarked) [DPPE, dipalmitoylphosphatidyl ethanolamine] | 60 °C
CCCCCCCCCCCCCC(=O)OCC(COP(=O)(O)OCCN)OC(=O)CCCCCCCCCCCCC (centres unmarked) [DMPE, dimyristoylphosphatidyl ethanolamine] | 50 °C

Assay: dissolution of SMT in aqueous 6-CF solution
Format: physicochemical
Details: 30 mg in 10 ml, pH 7, room temperature
Experimental: 270 mg of DPPC and 30 mg of DSPC were dissolved in 70 ml of 1:1 mixture of chloroform and isopropylether in a 1--1 beaker. To 10 ml of an aqueous solution of 6-carboxyfluorescein (6-CF), pH 7, which had been prepared beforehand so that the osmotic pressure might be the same as that of the physiological saline, 30 mg of sodium stearoylmethyltaurine (SMT) was added at room temperature. […] Then this solution was added to the solution of the phospholipid in an organic solvent, and emulsified by a probe type sonicator (Ohtake, Japan), to give a w/o type emulsion. Sonication at 50 watt for 30 seconds was repeated 10 times. This emulsion was charged to a rotary evaporator to evaporate off the organic solvent at 60° C. under reduced pressure, to give REV. The pressure in the evaporator was reduced greatly in the initial stage, but then adjusted in the course of evaporation of the organic solvent to prevent bumping. A small amount of the organic solvent remained in REV was further evaporated off by blowing nitrogen gas. […] The entrapment ratio of 6CF in this liposome composition was 33.2% as determined by quantification of 6-Cf entrapped in liposome (Note 1).

Compound | solubility of SMT in aqueous 6-CF solution
CCCCCCCCCCCCCCCCCC(=O)N(C)CCS(=O)(=O)O.[Na] | almost insoluble

Assay: Krafft point of anionic surfactants
Format: physicochemical
Details: not given

Compound | Krafft point
CCCCCCCCCCCCCCCCCCOS(=O)(=O)[O-].[Na+] [sodium octadecyl sulfate] | 58 °C
CCCCCCCCCCCCCCCC(=O)N(C)CCS(=O)(=O)O.[Na] [sodium palmitoylmethyltaurine] | 43 °C
CCCCCCCCCCCCCCCC(=O)NCCCOS(=O)(=O)O [sodium palmitoyl propanolamide sulfate ester] | 47 °C
CCCCCCCCCCCCCCCCCCc1ccc(S(=O)(=O)O)cc1 [sodium octadecylbenzenesulfonate] | 56 °C
CCCCCCCCCCCCOS(=O)(=O)[O-].[Na+] [sodium dodecyl sulfate, reference compound] | 9 °C
CCCCCCCCCCCCCCCCCCOCCOS(=O)(=O)O [sodium octadecylether sulfate ester] | 46 °C
CCCCCCCCCCCCCCCCS(=O)(=O)[O-].[Na+] [sodium hexadecanesulfonate] | 57 °C
CCCCCCCCCCCCS(=O)(=O)[O-].[Na+] [sodium dodecanesulfonate] | 38 °C
CCCCCCCCCCCCCCc1ccc(S(=O)(=O)O)cc1 [sodium tetradecylbenzenesulfonate] | 43 °C
sodium octadecyl disulfate ester | 45 °C
CCCCCCCCCCCCCCS(=O)(=O)[O-].[Na+] [sodium tetradecanesulfonate] | 48 °C
CCCCCCCCCCCCc1ccc(S(=O)(=O)O)cc1 [sodium dodecylbenzenesulfonate] | 40 °C
CCCCCCCCCCCCCCCC(=O)NCCS(=O)(=O)O.[Na] [sodium palmitoyltaurine] | 43 °C
CCCCCCCCCCCCCCCCOS(=O)(=O)[O-].[Na+] [sodium hexadecyl sulfate] | 43 °C
CCCCCCCCCCCCCCCCCC(=O)NCCS(=O)(=O)O.[Na] [sodium stearoyltaurine] | 58 °C
CCCCCCCCCCCCCCCCCC(=O)NCCCOS(=O)(=O)O [sodium stearoyl propanolamide sulfate ester] | 57 °C
CCCCCCCCCCCCCCCCc1ccc(S(=O)(=O)O)cc1 [sodium hexadecylbenzenesulfonate] | 46 °C
CCCCCCCCCCCCCCCCCS(=O)(=O)[O-].[Na+] [sodium heptadecanesulfonate] | 62 °C
CCCCCCCCCCCCCCCCCCOCCOCCOS(=O)(=O)O [sodium octadecyl diether sulfate ester] | 40 °C
CCCCCCCCCCCCCCCCCCS(=O)(=O)[O-].[Na+] [sodium octadecanesulfonate] | 70 °C
CCCCCCCCCCCCCCCS(=O)(=O)[O-].[Na+] [sodium pentadecanesulfonate] | 48 °C
CCCCCCCCCCCCCCCCCC(=O)NCCOS(=O)(=O)O [sodium stearoyl ethanolamide sulfate ester] | 53 °C
CCCCCCCCCCCCCCCC(=O)NCCOS(=O)(=O)O [sodium palmitoyl ethanolamide sulfate ester] | 42 °C
sodium hexadecyl disulfate ester | 39 °C
CCCCCCCCCCCCCCCCCC(=O)N(C)CCS(=O)(=O)O.[Na] | 58 °C
